Test results: the supplement of paper PMC5908809

Key:
Assay in all cases: relative IC50 (inflection point of fitted viability curve, relative to fitted max inhibition); higher = less sensitive
Details in all cases: 72 h
NKL (IL-2 2.5 ng/mL) = system: NKL (IL-2 2.5 ng/mL)
Protocol: (§1)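 Drug sensitivity and resistance testing: 5 concentrations over a 10,000-fold range, 72 h at 37 °C, viability by CellTiter-Glo normalised to DMSO and benzethonium chloride controls. IC50 is the inflection point of a logistic fit (min fixed at 0, max fitted), so it is relative to the fitted maximal inhibition. Kept only where fitted max inhibition is at least 50%.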

DERL-7 (IL-2 2.5 ng/mL) = system: DERL-7 (IL-2 2.5 ng/mL)
Protocol: as §1

[1] = system: normal primary NK cells, pool 1 (3 donors), resting (IL-2 0 ng/mL)
Protocol: as §1

KHYG-1 (IL-2 2.5 ng/mL) = system: KHYG-1 (IL-2 2.5 ng/mL)
Protocol: as §1

[2] = system: normal primary NK cells, pool 3 (3 donors) (IL-2 2.5 ng/mL)
Protocol: as §1

SNK-6 (IL-2 2.5 ng/mL) = system: SNK-6 (IL-2 2.5 ng/mL)
Protocol: as §1

IMC-1 (IL-2 20 ng/mL) = system: IMC-1 (IL-2 20 ng/mL)
Protocol: as §1

NK-YS (IL-2 2.5 ng/mL) = system: NK-YS (IL-2 2.5 ng/mL)
Protocol: as §1

YT (IL-2 2.5 ng/mL) = system: YT (IL-2 2.5 ng/mL)
Protocol: as §1

KAI3 (IL-2 2.5 ng/mL) = system: KAI3 (IL-2 2.5 ng/mL)
Protocol: as §1

NK-92 (IL-2 2.5 ng/mL) = system: NK-92 (IL-2 2.5 ng/mL)
Protocol: as §1

[3] = system: normal primary NK cells, pool 2 (3 donors) (IL-2 2.5 ng/mL)
Protocol: as §1

[4] = system: normal primary NK cells, pool 1 (3 donors) (IL-2 2.5 ng/mL)
Protocol: as §1

SMILES | relative IC50 (NKL (IL-2 2.5 ng/mL)) | relative IC50 (DERL-7 (IL-2 2.5 ng/mL)) | relative IC50 [1] | relative IC50 (KHYG-1 (IL-2 2.5 ng/mL)) | relative IC50 [2] | relative IC50 (SNK-6 (IL-2 2.5 ng/mL)) | relative IC50 (IMC-1 (IL-2 20 ng/mL)) | relative IC50 (NK-YS (IL-2 2.5 ng/mL)) | relative IC50 (YT (IL-2 2.5 ng/mL)) | relative IC50 (KAI3 (IL-2 2.5 ng/mL)) | relative IC50 (NK-92 (IL-2 2.5 ng/mL)) | relative IC50 [3] | relative IC50 [4]
CCCc1cc(C)[nH]c(=O)c1CNC(=O)c1cc(-c2ccnc(N3CCN(C)CC3)c2)cc2c1cnn2C(C)C [GSK343] | 3350 nM | 2420 nM | 2240 nM | 2880 nM | 3690 nM | 3520 nM | 3630 nM | 2780 nM | 2890 nM | 2480 nM | 3190 nM | > 10000 nM | 2470 nM
Nc1ccccc1NC(=O)c1ccc(CNc2nccc(-c3cccnc3)n2)cc1 [Mocetinostat] | 166 nM | 381 nM | 443 nM | 340 nM | 738 nM | 242 nM | 291 nM | 697 nM | 1030 nM | 313 nM | 246 nM | 703 nM | 723 nM
CC1(C)CCC(c2ccc(Cl)cc2)=C(CN2CCN(c3ccc(C(=O)NS(=O)(=O)c4ccc(N[C@H](CCN5CCOCC5)CSc5ccccc5)c(S(=O)(=O)C(F)(F)F)c4)cc3)CC2)C1 [Navitoclax] | 35.7 nM | 109 nM | 10.4 nM | 67.7 nM | 203 nM | 4.44 nM | 727 nM | 73.6 nM | 26.7 nM | 3.12 nM | 208 nM | 83 nM | 85.3 nM
COC[C@H](NC(=O)c1cnc(C)s1)C(=O)N[C@@H](COC)C(=O)N[C@@H](Cc1ccccc1)C(=O)[C@@]1(C)CO1 [Oprozomib] | 52.5 nM | 10.5 nM | 19.2 nM | 48 nM | 24.8 nM | 50.1 nM | 76.8 nM | 27.7 nM | 49.1 nM | 24.1 nM | 32.4 nM | 17.9 nM | 34.7 nM
CO[C@H](C(=O)[C@@H](O)[C@@H](C)O)[C@@H]1Cc2cc3cc(O[C@H]4C[C@@H](O[C@@H]5C[C@@H](O)[C@H](O)[C@@H](C)O5)[C@H](O)[C@@H](C)O4)c(C)c(O)c3c(O)c2C(=O)[C@H]1O[C@H]1C[C@@H](O[C@@H]2C[C@@H](O)[C@@H](O[C@@H]3C[C@](C)(O)[C@H](O)[C@@H](C)O3)[C@@H](C)O2)[C@H](O)[C@@H](C)O1 [Plicamycin] | 37.9 nM | 48.2 nM | 135 nM | 44.7 nM | 785 nM | 11.7 nM | 730 nM | 27.7 nM | 31.6 nM | 84.1 nM | 220 nM | 692 nM | 136 nM
O=C(CCCCCCNC(=O)c1cnc(N(c2ccccc2)c2ccccc2)nc1)NO [Rocilinostat] | 814 nM | 1990 nM | 485 nM | 1050 nM | 2470 nM | 1350 nM | 2490 nM | 1620 nM | 1810 nM | 823 nM | 1210 nM | 1550 nM | 1100 nM
c1ccc(Cn2c(-c3ccc(OC[C@H](C4CCNCC4)n4c(-c5ccccc5)nc5ccccc54)cc3)nc3ccccc32)cc1 [deltarasin] | 2110 nM | 1950 nM | 1640 nM | 2850 nM | 2910 nM | 3290 nM | 3560 nM | 2410 nM | 2630 nM | 1770 nM | 1830 nM | 2270 nM | 2880 nM
